Assay results as given in patent publication US8110365B2, “Compositions and methods for detecting and treating renal injury and inflammation” (Rhode Island Hospital, priority 2006, dated 2012).
Entries after “also recorded” stand apart in the source; their conditions may differ. Like-named read-outs stand apart in the source and are kept apart here.

Columns and labels:
b-catenin = b-catenin accumulation in HKC; type: cell-based, human
HKC cells = experiment: Cell viability of HKC cells (Trypan blue exclusion); type: cell-based, human; details: TNF-a (2 ng/ml) treated HKC cells at 24 h
Protocol: (§1) Human proximal TEC (HKC-8) (courtesy of Dr. L. Racusen of John Hopkins University, Baltimore, Md.) were maintained in Dulbecco's modified Eagle's medium (DMEM)/F12 supplemented with 5% fetal bovine serum (FBS). Cells were plated at approximately 70% confluence in the media containing 5% FBS for 24 h and then underwent serum starvation for another 24 h. Human recombinant HGF and human recombinant TNF-α (R&D systems, Minneapolis, Minn.) were added to the culture with fresh serum-free medium at a final concentration of 20 ng/ml and 2 ng/ml respectively, or otherwise as indicated. Cell viability was assessed by Trypan blue exclusion. At different time points, cells and conditioned media were harvested for further investigation.

GSK3b = GSK3b (Homo sapiens, UniProt P49841); experiment: Inhibitory phosphorylation of GSK3b in HKC cells (immunoblot); type: cell-based; parameters: endogenous in cells; host or cells: HKC-8
Chain of GSK3b (P49841 whole entry): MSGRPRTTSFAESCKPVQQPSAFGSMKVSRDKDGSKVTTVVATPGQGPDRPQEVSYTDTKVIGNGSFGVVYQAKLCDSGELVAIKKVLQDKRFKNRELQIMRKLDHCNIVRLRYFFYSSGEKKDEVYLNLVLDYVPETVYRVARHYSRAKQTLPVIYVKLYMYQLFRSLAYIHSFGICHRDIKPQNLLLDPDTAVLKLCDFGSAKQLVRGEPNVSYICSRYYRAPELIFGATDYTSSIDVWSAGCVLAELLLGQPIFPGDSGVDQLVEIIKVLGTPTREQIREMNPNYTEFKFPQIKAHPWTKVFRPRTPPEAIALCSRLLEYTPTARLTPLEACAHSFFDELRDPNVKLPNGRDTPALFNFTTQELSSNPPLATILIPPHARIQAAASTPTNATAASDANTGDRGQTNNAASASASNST
Protocol: as §1
(§2) After different treatments, HKC cells were washed with PBS and lysed with RIPA buffer supplemented with protease inhibitors [1% Nonidet P-40, 0.1% SDS, 100 ug/ml phenylmethysulfonyl fluoride (PMSF), 0.5% sodium deoxycholate, ImM sodium orthovanadate, 2 ug/ml aprotin, 2 ug/ml leupeptin, 5mM EDTA in PBS]. Protein concentration was determined by using a bicinchoninic acid protein assay kit (Sigma). All samples with equal amounts of total protein (50 ug/ml) were fractionated by 7.5˜15% SDS-polyacrylamide gels under reducing condition and analyzed by western immunoblot as described previously (30). The antibodies against p-GSK3b, p-NFkB p65, p-IkBa were purchased from Cell Signaling Technology (Beverly, Mass.) and those for GSK3b, hemagglutin were from Santa Cruz Biotechnology (Santa Cruz, Calif.).

NFkB target genes = experiment: Real time RT-PCR of NFkB target genes in TNF-a stimulated HKC cells; type: cell-based, human; details: HKC cells, 12 h
Protocol: Total RNA was extracted from approximately 1×10^6 cultured HKC cells using TRIzol solution (Invitrogen, Carlsbad, Calif.) according to the instructions specified by the manufacturer. RNA was then diluted to 3μg/μl in RNase free distilled water. The first strand cDNA was prepared using 3 μg RNA, Superscript RT reverse transcriptase (Invitrogen) and oligo (dT) primer according to the manufacture's instruction. Quantitative real time PCR was carried out on a Stratagene Mx4000® multiplex quantitative PCR system (Stratagene, La Jolla, Calif.) using primers specific for human MCP-1, RANTES, IkBa, Bcl-2 and GAPDH. All reactions were performed in triplicate with Brilliant® SYBR® Green QPCR Master Mix (Stratagene). Fluorescence values of SYBR Green I dye, representing the amount of product amplified at that point in the reaction, were recorded in real time at both the annealing step and the extension step of each cycle. The Ct value, defined as the point at which the fluorescence signal was statistically significant above background, was calculated for each amplicon in each experimental sample using Stratagene Mx4000 software. This value was then used to determine the relative amount of amplification in each sample by interpolating from the standard curve. Transcript level of each specific gene was normalized to GAPDH amplification.

[1] = test system: rats with unilateral urethral obstruction(UUO); experiment: Rats with unilateral urethral obstruction (UUO); type: in vivo, rat; details: for renal inflammation (ED-1 macrophage infiltration): VPA 200 mg/kg/d ip, 5 days
NFkB p65 = experiment: TNF-a induced NFkB p65 phosphorylation in HKC cells (immunoblot); type: cell-based, human; details: HKC cells; for TNF-a induced p65 phosphorylation at S468: TNF-a 2 ng/ml, VPA 1 mM, 10 uM for 60 minutes
Protocol: as §1, §2

GSK3b and NFkB p65 = molecular target: T1, GSK3b and NFkB p65 (Homo sapiens, UniProt P49841); experiment: Co-immunoprecipitation of GSK3b and NFkB p65 in HKC cells; type: cell-based; details: HKC cells
T1 construct: whole cell lysates were subjected to immunoprecipitation by anti-GSK3b or anti-p65 antibody; endogenous in cells; host or cells: HKC-8
T1 sequence (P49841 whole entry): as above
Protocol: Immunoprecipitation was carried out by using an established method as described previously. Briefly, cells were washed with ice cold PBS and then lysed with RIPA buffer. After preclearing with normal IgG, cell lysates with equal amount of total protein (0.5 mg of protein) were incubated overnight at 4° C. with 4 μg specific agarose-conjugated antibodies. The precipitated complexes were collected, washed, and separated on SDS-polyacrylamide gels and blotted with various antibodies as indicated.

[2] = kidney homogenates, immunoblot, listed as VPA

Row | SMILES | b-catenin accumulation (b-catenin) | cell viability / TNF-a induced apoptosis (HKC cells) | inhibitory phosphorylation of GSK3b (S9) (GSK3b) | TNF-a induced mRNA expression of IkBa and Bcl-2 (NFkB target genes) | TNF-a induced mRNA expression of MCP-1 and RANTES (NFkB target genes) | renal inflammation (ED-1 macrophage infiltration) [1] | renal inflammation (ED-1 macrophage infiltration) ([1]; listed as VPA) | renal total GSK3b expression ([1]; kidney homogenates, immunoblot) | renal inhibitory phosphorylation of GSK3b [1, 2] | renal total GSK3b expression [1, 2] | TNF-a induced p65 phosphorylation at other sites (S276, S536) (NFkB p65) | TNF-a induced p65 phosphorylation at S468 (NFkB p65) | TNF-a induced p65 phosphorylation at S468 (NFkB p65; listed as VPA) | TNF-a induced co-precipitation of phosphorylated p65 (Ser468) with GSK3b (GSK3b and NFkB p65; immunoprecipitation by anti-GSK3b) | TNF-a induced GSK3b to p65 interaction (GSK3b and NFkB p65; immunoprecipitation by anti-p65) | inhibitory phosphorylation of GSK3b (S9) (GSK3b; listed as Sodium valproate) | inhibitory phosphorylation of GSK3b (S9) (GSK3b; listed as Valproic acid)
1 | Cn1sc(=O)n(Cc2ccccc2)c1=O [TDZD-8] | induced b-catenin (b-Cat.) accumulation | Only lithium significantly reduced cell viability | induced marked GSK3b phosphorylation |  |  |  |  |  |  |  |  |  |  |  |  |  | 
2 | CCCC(CCC)C(=O)O [valproate, Valproic acid, reference compound] | induced b-catenin (b-Cat.) accumulation | Only lithium significantly reduced cell viability | induced marked GSK3b phosphorylation | mimicked the action of HGF on the expression of these genes | mimicked the action of HGF on the expression of these genes | prevented inflammatory infiltration; also recorded: markedly ameliorates renal inflammation | diminished renal inflammation | blunted induced expression of GSK3b in the diseased kidney | much greater; also recorded: enhanced its inhibitory phosphorylation | substantially suppressed total GSK3b expression | minimally affected phosphorylation of p65 at other sites | suppresses TNF-a elicited p65 phosphorylation at S468 | abrogates the TNF-a induced NFkB p65 phosphorylation at Ser468 in a dose dependent manner | mimicking the action of VPA | reminiscent the effect of VPA | induced phosphorylation of GSK3b at Ser9 | induces inhibitory phosphorylation of GSK3b at S9
